The source of these data is ChEMBL document CHEMBL4371055, “Bioactive polyoxygenated cembranoids from a novel Hainan chemotype of the soft coral Sinularia flexibilis” (Bioorg Med Chem Lett, 2019).

Where only a bound is given, the exact number is not on record here.

One data set concerns RAW264.7. Put plainly: Antiinflammatory activity in mouse RAW264.7 cells assessed as inhibition of LPS-induced TNFalpha production pretreated for 30 mins followed by LPS stimulation for 24 hrs by ELISA. It counts as functional, cell-based.
Data set [1] in a line: Selectivity index, ratio of CC50 for mouse RAW264.7 cells to IC50 for inhibition of LPS-induced TNFalpha production in mouse RAW264.7 cells. It is filed as toxicity, cell-based. Conditions: read-out: Ratio CC50/IC50.
The subject of the next data set is SNU-398. Put plainly: Cytotoxicity against human SNU398 cells after 48 hrs by sulforhodamine B assay. It is filed as functional, cell-based. Conditions: SNU-398, 48 h.
Another data set concerns CAPAN-1. Put plainly: Cytotoxicity against human Capan1 cells after 48 hrs by sulforhodamine B assay. It counts as functional, cell-based. Particulars: CAPAN-1, 48 h.
Data set [2] in a line: Cytotoxicity against mouse RAW264.7 cells assessed as reduction in cell viability after 24 hrs by CCK8 assay. It counts as cell-based.
The test system of the next data set is A549. Put plainly: Cytotoxicity against human A549 cells after 48 hrs by sulforhodamine B assay. It is filed as functional, cell-based. Particulars: A549, 48 h.
In another data set the test system is HT-29. Put plainly: Cytotoxicity against human HT-29 cells after 48 hrs by sulforhodamine B assay. It is filed as functional, cell-based. Particulars: HT-29, 48 h.

`C=C(C(=O)OCCCC)[C@@H]1CC[C@@](C)(O)[C@@H]2CC[C@](C)(O2)[C@@H](OC(C)=O)CC[C@]2(C)O[C@H]2C1`: the half-inhibitory concentration (IC50) was 20.7 µM in the data set with RAW264.7; greater than 50 µM in the data set with SNU-398; greater than 50 µM with CAPAN-1; greater than 50 µM in the data set on A549; greater than 50 µM in the data set on HT-29. Besides, in data set [1], the selectivity ratio was greater than 2.4. In data set [2], the CC50 at 24 h is greater than 50 µM.
Consider `C=C(C(=O)OC)[C@H]1CC[C@@]2(C)O[C@@H]2CC/C(C)=C/CC[C@@]2(C)O[C@H]2C1`, for which the IC50 is 4.2 µM in the data set on RAW264.7; greater than 50 µM in the data set with SNU-398; greater than 50 µM in the data set on CAPAN-1; greater than 50 µM in the data set with A549; greater than 50 µM with HT-29. The selectivity ratio in data set [1] was greater than 11.9. Besides, the CC50 at 24 h in data set [2] is greater than 50 µM.
As for `C=C1C(=O)O[C@]2(C)CC[C@@H]1C[C@@H]1O[C@@]1(C)CC/C=C(\C)CC[C@@H]2O` [SINULARIOLIDE], the concentration for half-maximal inhibition (IC50) in the data set with RAW264.7 was 4.7 µM; in the data set with SNU-398, 24.7 µM; with CAPAN-1, 26.1 µM; in the data set with A549, greater than 50 µM; in the data set on HT-29, 33.6 µM. Further, the selectivity ratio in data set [1] is greater than 10.6. Also, the CC50 at 24 h in data set [2] is greater than 50 µM.
As to `CC(=O)O[C@H]1C(=O)[C@@]2(C)[C@H]([C@H](OC(=O)c3ccccc3)[C@]3(O)C[C@H](OC(=O)[C@H](O)[C@@H](NC(=O)c4ccccc4)c4ccccc4)C(C)=C1C3(C)C)[C@]1(OC(C)=O)CO[C@@H]1C[C@@H]2O` [PACLITAXEL], the IC50 amounted to 0.0006 µM with SNU-398 and 0.0033 µM in the data set on CAPAN-1.
As for `C[C@@H]1C[C@H]2[C@@H]3CCC4=CC(=O)C=C[C@]4(C)[C@@]3(F)[C@@H](O)C[C@]2(C)[C@@]1(O)C(=O)CO` [DEXAMETHASONE], the IC50 in the data set on RAW264.7 amounted to 8.7 µM. The selectivity ratio in data set [1] was greater than 5.7. Moreover, in data set [2], the 50% cytotoxic concentration (CC50) at 24 h was greater than 50 µM.
Turning to `C=C(C(=O)OCCCC)[C@H]1CC[C@](C)(O)C(=O)CC/C(C)=C/CC[C@]2(C)O[C@@H]2C1`, the IC50 in the data set with RAW264.7 is 38.9 µM; in the data set on SNU-398, greater than 50 µM; in the data set on CAPAN-1, greater than 50 µM; in the data set with A549 it was greater than 50 µM; with HT-29, greater than 50 µM. Also, the selectivity ratio in data set [1] was greater than 1.3. The CC50 at 24 h in data set [2] is greater than 50 µM.
For `C=C(C(=O)OC)[C@H]1CC[C@](C)(O)C(=O)CC/C(C)=C/CC[C@]2(C)O[C@@H]2C1`, the half-maximal inhibitory concentration (IC50) in the data set on RAW264.7 was 13.3 µM; with SNU-398, greater than 50 µM; in the data set on CAPAN-1, greater than 50 µM; in the data set on A549 it was greater than 50 µM; in the data set on HT-29, greater than 50 µM. Besides, in data set [1], the selectivity ratio was greater than 3.8. For the same compound, the CC50 at 24 h in data set [2] was greater than 50 µM.
Take `C=C1C(=O)O[C@]2(C)CC[C@@H]1C[C@@H]1O[C@@]1(C)CC/C=C(\C)CCC2=O`: the 50% inhibitory concentration (IC50) in the data set with RAW264.7 is greater than 50 µM; in the data set on SNU-398, 8.9 µM; in the data set with CAPAN-1 it was 9.4 µM; in the data set on A549, 27.4 µM; in the data set with HT-29 it was 22.7 µM. For the same compound, the CC50 at 24 h in data set [2] is greater than 50 µM.
Regarding `C=C(C)[C@@H]1CC[C@]2(C)O[C@H]2CC/C(C)=C/CC[C@]2(C)O[C@H]2C1`, the IC50 in the data set on RAW264.7, in the data set on SNU-398, with CAPAN-1, in the data set on A549 and in the data set with HT-29 was greater than 50 µM each time. For the same compound, in data set [2], the half-maximal cytotoxic concentration (CC50) at 24 h is greater than 50 µM.
As to `C=C1C(=O)O[C@]2(C)CC[C@@H]1C[C@@H]1O[C@@]1(C)CC/C=C(\C)CC[C@H]2OC(C)=O`, the IC50 in the data set with RAW264.7 was 2.7 µM; in the data set on SNU-398, 24.9 µM; with CAPAN-1, 28.7 µM; with A549, greater than 50 µM; with HT-29, 32.6 µM. Further, in data set [1], the selectivity ratio was greater than 18.5. Besides, in data set [2], the half-maximal cytotoxic concentration (CC50) at 24 h was greater than 50 µM.
For `C=C(C(=O)OCCCC)[C@@H]1CC[C@@](C)(O)[C@H](O)CC/C(C)=C/CC[C@]2(C)O[C@H]2C1`, the half-maximal inhibitory concentration (IC50) in the data set on RAW264.7, in the data set with SNU-398, in the data set on CAPAN-1, with A549 and in the data set with HT-29 was greater than 50 µM throughout. For the same compound, the CC50 at 24 h in data set [2] is greater than 50 µM.
